Test results reported in patent publication US12083139B2, “Use of IGF-2 receptor agonist ligands for treatment of Angelman Syndrome and autism” (New York University, priority 2018, dated 2024).
Where two headings read alike, the source gives them in different places.

What was measured:
[1] = tested on: Ube3a−/+ (AS) mice; test: Hindlimb clasping in AS mice; format: in vivo; settings: 850 μg/kg s.c. 20 min before test
Experimental: FIG. 5. M6P reverses cognitive and motor deficits in AS mice. Experimental timelines are shown above graphs. In all experiments mice received a s.c. injection of either vehicle or 850 μg/Kg of M6P (IGF-2R.L1 or L1)(↑) 20 min before either training or testing. (A) Percent exploration preference for a novel object compared to a familiar object during the nOR paradigm of WT (Control) and Ube3a−/+(AS) mice injected with vehicle or IGF-2R.L1 20 min before training, and tested at 4 h and 24 h after training. N=4/group. Data are expressed as the mean±s.e.m. Two-way analysis of variance (ANOVA) followed by Bonferroni post-hoc tests. *P<0.05, **P<0.01, ***P<0.001. (B) Percent of correct alternations (% Correct) in a Y-maze of WT and AS mice injected with vehicle or M6P before testing (Test). Data are expressed as the mean (±s.e.m.). (C) Hindlimb clasping scores of WT and AS mice injected with vehicle or IGF-2R.L1, 20 min before Test. Hindlimb clasping scores are measured and expressed as following: If the hindlimbs are consistently splayed outward, away from the abdomen, it is assigned a score of 0. If one hindlimb is retracted toward the abdomen for more than 50% of the time suspended, it receives a score of 1. […]
(§1) FIG. 6. […] Data are expressed as the % mean±s.e.m. […]
L2 injection reversed motor deficits as measured by hindlimb clasping.

[2] = tested on: WT (Control) mice; test: Novel object recognition (nOR) in WT mice; format: in vivo
Experimental: (§2) FIG. 1. IGF-2 reverses most behavioral deficits observed in a mouse model of AS. Experimental timelines are shown above graphs. In all experiments mice received a s.c. injection of either vehicle or IGF-2 (↑) 20 min before either training or testing. All data are expressed as the mean±s.e.m. N=8-12 per group. Two-way analysis of variance (ANOVA) followed by Bonferroni post-hoc tests. *P<0.05, **P<0.01, ***P<0.001. (A) Percentage of time spent freezing before (Pre-US) or after (Post-US) the shock delivery during contextual fear conditioning training and at testing at 24 hours (h) after training (Test) of normal mice (wild type, WT), which served as controls and Ube3a−/+ mice (mouse model of AS, also referred to as mice) injected with vehicle or IGF-2. (B) Percent exploration preference for a novel object compared to a familiar object during novel object recognition of WT and Ube3a−/+ mice injected with vehicle or IGF-2, 20 min before training, tested at 4 h and 24 h after training. (C) Percent of correct alternations (% Correct) in a Y-maze of WT and Ube3a−/+ mice injected with vehicle or IGF-2 before testing (Test). (D) Latency to fall off from a rotating rod by WT and Ube3a−/+ mice injected with vehicle or IGF-2, 20 min before Test, and tested again 3 and 7 days later. (E) Time spent burying marbles by WT and Ube3a−/+ mice injected with vehicle or IGF-2, 20 min before Test. (F) Time spent in the center of an open field by WT and Ube3a−/+ mice following a vehicle or IGF-2 injection given 20 min before Test. The bars for each set from left to right are: WT Vehicle, WT IGF-2, Ube3a−/+ Vehicle, and Ube3a−/+ IGF-2.
(§3) FIG. 5. M6P reverses cognitive and motor deficits in AS mice. Experimental timelines are shown above graphs. In all experiments mice received a s.c. injection of either vehicle or 850 μg/Kg of M6P (IGF-2R.L1 or L1)(↑) 20 min before either training or testing. (A) Percent exploration preference for a novel object compared to a familiar object during the nOR paradigm of WT (Control) and Ube3a−/+(AS) mice injected with vehicle or IGF-2R.L1 20 min before training, and tested at 4 h and 24 h after training. N=4/group. Data are expressed as the mean±s.e.m. Two-way analysis of variance (ANOVA) followed by Bonferroni post-hoc tests. *P<0.05, **P<0.01, ***P<0.001. (B) Percent of correct alternations (% Correct) in a Y-maze of WT and AS mice injected with vehicle or M6P before testing (Test). Data are expressed as the mean (±s.e.m.). (C) Hindlimb clasping scores of WT and AS mice injected with vehicle or IGF-2R.L1, 20 min before Test. Hindlimb clasping scores are measured and expressed as following: If the hindlimbs are consistently splayed outward, away from the abdomen, it is assigned a score of 0. If one hindlimb is retracted toward the abdomen for more than 50% of the time suspended, it receives a score of 1. If both hindlimbs are partially retracted toward the abdomen for more than 50% of the time suspended, it receives a score of 2. If its hindlimbs are entirely retracted and touching the abdomen for more than 50% of the time suspended, it receives a score of 3. Data are expressed in scores. B and C: N=8-14 per group. Two-way analysis of variance (ANOVA) followed by Tukey post-hoc tests. *P<0.05, **P<0.01, ***P<0.001.
FIG. 6. PnM6P reverses memory and motor deficits in AS mice. Experimental timelines are shown above graphs. […] Data are expressed as the % mean±s.e.m. […]

[3] = tested on: Ube3a−/+ (AS) mice; test: Novel object recognition (nOR) in AS mice; format: in vivo
Experimental: as §2, §3
FIG. 6. PnM6P reverses memory and motor deficits in AS mice. Experimental timelines are shown above graphs. In all experiments mice received a s.c. injection of either vehicle or 850 μg/Kg of phosphonate-M6P (PnM6P) called IGF-2R.L2 (or L2) (↑) 20 min before either training or testing. (A) Percent exploration preference for a novel object compared to a familiar object during the nOR paradigm of WT (Control) and Ube3a−/+ (AS) mice injected with vehicle or L2 before training, and tested at 4 h, 24 h and 5 days (5 d) after training. N=4/group. Data are expressed as the % mean±s.e.m. (B). […]

[4] = tested on: Ube3a−/+ (AS) mice; test: RotaRod test (accelerating rotating rod) in AS mice; format: in vivo; settings: s.c. injection 20 min before test (L2 850 μg/kg)
Experimental: as §2, with “(D) Latency to fall off from a rotating rod by WT and Ube3a−/+ mice injected with vehicle or IGF-2, 20 min before Test, and tested again 3 and 7 days later. (E) Time spent burying marbles by WT and Ube3a−/+ mice injected with vehicle or IGF-2, 20 min before Test. (F) Time spent in the center of an open field by WT and Ube3a−/+ mice following a vehicle or IGF-2 injection given 20 min before Test. The bars for each set from left to right are: WT Vehicle, WT IGF-2, Ube3a−/+ Vehicle, and Ube3a−/+ IGF-2.” left out
as §1
AS is also associated with robust motor impairments, which again are reproduced in the AS mice. Motor coordination and ability is reliably assessed in mice by placing them on an accelerating rotating rod (RotaRod test). […]

[5] = tested on: Ube3a−/+ (AS) mice; test: Marble-burying test in AS mice; format: in vivo; settings: s.c. injection 20 min before test
Experimental: as §2, with “(F) Time spent in the center of an open field by WT and Ube3a−/+ mice following a vehicle or IGF-2 injection given 20 min before Test. The bars for each set from left to right are: WT Vehicle, WT IGF-2, Ube3a−/+ Vehicle, and Ube3a−/+ IGF-2.” left out

[6] = tested on: Ube3a−/+ mice (mouse model of AS); test: Contextual fear conditioning (CFC) in AS mice; format: in vivo; settings: s.c. injection 20 min before training, test 24 h after training
Experimental: (§4) FIG. 1. IGF-2 reverses most behavioral deficits observed in a mouse model of AS. Experimental timelines are shown above graphs. In all experiments mice received a s.c. injection of either vehicle or IGF-2 (↑) 20 min before either training or testing. All data are expressed as the mean±s.e.m. N=8-12 per group. Two-way analysis of variance (ANOVA) followed by Bonferroni post-hoc tests. *P<0.05, **P<0.01, ***P<0.001. (A) Percentage of time spent freezing before (Pre-US) or after (Post-US) the shock delivery during contextual fear conditioning training and at testing at 24 hours (h) after training (Test) of normal mice (wild type, WT), which served as controls and Ube3a−/+ mice (mouse model of AS, also referred to as mice) injected with vehicle or IGF-2. (B) Percent exploration preference for a novel object compared to a familiar object during novel object recognition of WT and Ube3a−/+ mice injected with vehicle or IGF-2, 20 min before training, tested at 4 h and 24 h after training. […]
As measures of learning/cognitive responses, which are known to be altered in Angelman Syndrome (AS), we tested different types of aversive and non-aversive memories. […] We tested memory retention one day later (a time that is used to measure long-term memory) by placing mice back in the same chamber and measured their fear-related (freezing) behavior.

[7] = molecular target: IGF-2 receptor (Homo sapiens, UniProt P11717); settings: cited from earlier work
Chain of IGF-2 receptor (P11717 41-2491): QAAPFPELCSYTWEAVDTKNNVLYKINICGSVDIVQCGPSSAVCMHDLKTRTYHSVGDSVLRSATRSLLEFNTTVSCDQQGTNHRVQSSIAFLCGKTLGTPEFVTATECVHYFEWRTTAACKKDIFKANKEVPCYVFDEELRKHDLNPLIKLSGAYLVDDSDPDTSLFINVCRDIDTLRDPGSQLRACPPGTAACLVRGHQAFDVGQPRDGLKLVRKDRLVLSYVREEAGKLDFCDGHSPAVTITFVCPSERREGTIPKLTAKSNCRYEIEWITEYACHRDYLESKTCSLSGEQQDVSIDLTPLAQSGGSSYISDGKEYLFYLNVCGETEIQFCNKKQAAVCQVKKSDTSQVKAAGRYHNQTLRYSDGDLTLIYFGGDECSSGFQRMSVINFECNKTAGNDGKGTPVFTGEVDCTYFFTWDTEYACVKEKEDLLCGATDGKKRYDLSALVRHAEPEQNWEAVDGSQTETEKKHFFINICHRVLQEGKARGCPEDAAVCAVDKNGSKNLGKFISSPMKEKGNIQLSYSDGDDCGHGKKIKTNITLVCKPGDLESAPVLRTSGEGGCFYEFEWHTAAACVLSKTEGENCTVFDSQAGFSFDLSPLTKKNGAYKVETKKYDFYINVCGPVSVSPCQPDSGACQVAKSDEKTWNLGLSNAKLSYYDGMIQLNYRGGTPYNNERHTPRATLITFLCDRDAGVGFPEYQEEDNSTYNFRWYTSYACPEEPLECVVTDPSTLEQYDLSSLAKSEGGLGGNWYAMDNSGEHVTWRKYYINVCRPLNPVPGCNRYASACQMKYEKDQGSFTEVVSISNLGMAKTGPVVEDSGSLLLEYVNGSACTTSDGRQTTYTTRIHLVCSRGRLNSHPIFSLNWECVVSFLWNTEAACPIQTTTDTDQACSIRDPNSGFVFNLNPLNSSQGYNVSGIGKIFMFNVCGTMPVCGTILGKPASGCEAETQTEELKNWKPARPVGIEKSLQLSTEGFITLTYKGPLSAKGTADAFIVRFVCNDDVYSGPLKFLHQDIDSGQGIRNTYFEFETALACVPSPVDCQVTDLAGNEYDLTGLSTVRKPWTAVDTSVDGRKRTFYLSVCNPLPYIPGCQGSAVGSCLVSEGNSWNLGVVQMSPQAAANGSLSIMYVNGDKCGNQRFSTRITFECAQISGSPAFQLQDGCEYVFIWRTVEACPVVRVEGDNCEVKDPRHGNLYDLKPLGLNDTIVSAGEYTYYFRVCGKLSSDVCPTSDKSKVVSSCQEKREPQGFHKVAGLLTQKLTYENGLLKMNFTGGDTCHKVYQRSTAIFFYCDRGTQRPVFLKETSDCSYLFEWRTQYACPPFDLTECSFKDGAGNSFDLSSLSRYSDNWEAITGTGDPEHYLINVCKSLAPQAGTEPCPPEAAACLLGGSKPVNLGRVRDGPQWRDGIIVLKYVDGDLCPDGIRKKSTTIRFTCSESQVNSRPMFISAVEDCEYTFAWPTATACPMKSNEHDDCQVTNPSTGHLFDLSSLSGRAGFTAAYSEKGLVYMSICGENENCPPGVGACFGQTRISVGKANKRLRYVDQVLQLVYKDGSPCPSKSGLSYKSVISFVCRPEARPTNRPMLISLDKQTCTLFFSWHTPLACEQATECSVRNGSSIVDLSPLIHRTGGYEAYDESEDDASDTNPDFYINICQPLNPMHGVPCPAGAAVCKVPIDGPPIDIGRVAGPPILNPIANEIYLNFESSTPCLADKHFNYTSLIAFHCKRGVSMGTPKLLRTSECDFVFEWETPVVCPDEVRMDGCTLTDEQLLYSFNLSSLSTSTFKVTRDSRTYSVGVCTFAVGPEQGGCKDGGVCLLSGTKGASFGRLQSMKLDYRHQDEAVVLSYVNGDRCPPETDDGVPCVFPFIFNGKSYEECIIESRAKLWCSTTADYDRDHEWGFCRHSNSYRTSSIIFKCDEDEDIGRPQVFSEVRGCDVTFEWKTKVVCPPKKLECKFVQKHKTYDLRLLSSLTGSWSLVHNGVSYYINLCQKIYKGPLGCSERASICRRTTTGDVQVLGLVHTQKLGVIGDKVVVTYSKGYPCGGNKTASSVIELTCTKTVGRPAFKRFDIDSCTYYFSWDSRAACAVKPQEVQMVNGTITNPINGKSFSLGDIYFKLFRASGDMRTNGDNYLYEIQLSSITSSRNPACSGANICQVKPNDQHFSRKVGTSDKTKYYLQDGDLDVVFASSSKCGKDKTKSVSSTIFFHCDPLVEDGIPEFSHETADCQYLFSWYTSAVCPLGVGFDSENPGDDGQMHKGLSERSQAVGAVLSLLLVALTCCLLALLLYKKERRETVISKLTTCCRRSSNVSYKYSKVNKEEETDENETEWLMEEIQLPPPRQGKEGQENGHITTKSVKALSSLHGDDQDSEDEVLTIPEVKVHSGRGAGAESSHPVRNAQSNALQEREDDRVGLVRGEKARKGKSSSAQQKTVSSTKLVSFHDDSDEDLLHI

[8] = tested on: Ube3a−/+ (AS) mice; test: Spontaneous alternation in three-arm Y-maze in AS mice; format: in vivo; settings: s.c. injection 20 min before test (M6P 850 μg/kg)
Experimental: as §4, with “training. (C) Percent of correct alternations (% Correct) in a Y-maze of WT and Ube3a−/+ mice injected with vehicle or IGF-2 before testing (Test).” for “training.”
FIG. 5. […] Data are expressed as the mean±s.e.m. […] Data are expressed as the mean (±s.e.m.). […] Hindlimb clasping scores are measured and expressed as following: If the hindlimbs are consistently splayed outward, away from the abdomen, it is assigned a score of 0. […]

[9] = tested on: Ube3a−/+ (AS) mice; test: Open field (center entry, anxiety-like behavior) in AS mice; format: in vivo; settings: s.c. injection 20 min before test
Experimental: as §4, with “training. (C) Percent of correct alternations (% Correct) in a Y-maze of WT and Ube3a−/+ mice injected with vehicle or IGF-2 before testing (Test).” for “training.”
To measure the effect of IGF-2 on anxiety-like behavior we employed open field and measured center entry (which measures anxiety behavior): No effect of IGF-2 treatment was found on AS mice, which remained altered compared to the behavior of normal mice (FIG. 1F).

[10] = L2 850 μg/kg s.c. before training, 5 d test
[11] = s.c. injection 20 min before training (M6P and L2 850 μg/kg), test 24 h after training
[12] = s.c. injection 20 min before training (M6P and L2 850 μg/kg), test 4 h after training

COC1OC(CCP(=O)(OCOC(=O)OC(C)C)OCOC(=O)OC(C)C)C(O)C(O)C1O [L2, Methyl 6-Deoxy-6-diisopropyloxycarbonyloxy-methyl-phosphinylmethyl-α-D-mannopyranoside]
Hindlimb clasping score (motor deficit) [1]: returned their hindlimb clasping behavior to control levels
Exploration preference for novel object (nOR memory) [2, 10]: none of the groups (vehicle or L2 injected) showed significant memory
Exploration preference for novel object (nOR memory) ([2]; s.c. injection 20 min before training (L2 850 μg/kg), test 4 h after training): significantly enhanced nOR memory retention in WT mice
Exploration preference for novel object (nOR memory) [2, 11]: showed significant memory compared to vehicle-injected groups
Exploration preference for novel object (nOR memory) [3, 10]: none of the groups (vehicle or L2 injected) showed significant memory
Exploration preference for novel object (nOR memory) [3, 12]: significantly reversed the deficit of AS mice in nOR
Exploration preference for novel object (nOR memory) [3, 11]: showed significant memory compared to vehicle-injected groups
Latency to fall off rotating rod (motor ability) [4]: significantly improved their motor ability on the RotaRod

IGF-2: insulin-like growth factor 2 (IGF-2 or IGF-II), IGF-2 receptor agonist ligand
Marble burying (time spent burying) [5]: rescued the deficits of the AS mice
Freezing (long-term memory retention) in contextual fear conditioning [6]: completely reversed the memory impairment of AS mice
Exploration preference for novel object (nOR memory) [2, 11]: significant preference for a novel object
Exploration preference for novel object (nOR memory) [3, 12]: completely reversed the memory deficits of AS mice
Exploration preference for novel object (nOR memory) [3, 11]: significant preference for a novel object
Kd ([7]; Williams et al., Science 2012, read-out: Kd for IGF-2 receptor): 0.04 to 0.06 µM
Latency to fall off rotating rod (motor ability) [4]: significant improvement in motor ability
Correct alternations in Y-maze (exploratory strategy/working memory) [8]: reverses the repetitive, inflexible behavior
Open field center entry (anxiety-like behavior) [9]: No effect

O=P(O)(O)OCC1OC(O)C(O)C(O)C1O (stereo not drawn) [M6P, mannose-6-phosphate]
Hindlimb clasping score (motor deficit) [1]: significantly reduced hind limb clasping
Exploration preference for novel object (nOR memory) [2, 11]: significant memory retention
Exploration preference for novel object (nOR memory) [3, 12]: reversed memory deficits in AS mice
Exploration preference for novel object (nOR memory) [3, 11]: significant memory retention
Kd ([7]; one of the two known binding sites, Olson et al., J. Biol. Chem. 2004, read-out: Affinity for IGF-2 receptor): ~0.001 µM
Kd ([7]; other of the two known binding sites, Olson et al., J. Biol. Chem. 2004, read-out: Affinity for IGF-2 receptor): ~1 µM
Correct alternations in Y-maze (exploratory strategy/working memory) [8]: completely reversed the deficit
